# Experimental data reported in US10918610B2, “Compounds and methods of promoting myelination” (Case Western Reserve University, priority 2017, dated 2021).
# System: newly myelinated fibers within the spinal cord
# Experiment: LPC-induced focal demyelination in the dorsal column of the spinal cord
# Format: in vivo, C57BL/6 female mice
# Settings: 25 mg/kg intraperitoneally daily, days 4 to 13 post laminectomy, versus vehicle
# Procedure: Focal demyelination in the dorsal column of the spinal cord was induced by the injection of 1% LPC solution. 12 week old C57BL/6 female mice were anesthetized using isoflurane and T10 laminectomies were performed. 1 μl of 1% LPC was infused into the dorsal column at a rate of 15 al/hour. At day 4, animals were randomized into treatment groups prior to treatment (2 animals were excluded due to surgical complications). […] Drugs were dissolved in DMSO and ethanol or corn oil and then diluted with sterile saline for injections. This experiment was done in a blinded manner: compounds were coded to ensure the researchers performing the experiments were unaware of the treatment being administered to each animal. […] Mice were anesthetized using ketamine/xylazine rodent cocktail and then euthanized by transcardial perfusion with 4% PFA, 2% glutaraldehyde, and 0.1 M sodium cacodylate. […] The number of myelinated axons per unit areas was counted from sections in the middle of each lesion and then averaged over each treatment group. […]
# Focal demyelination in the dorsal column of the spinal cord was induced by the injection of 1% LPC solution. […] The number of myelinated axons per unit area was counted from sections obtained from the middle of each lesion and then averaged over each treatment group. All sections within the lesion area were scored. […]
smiles,measurement,value
CCN(C/C=C\c1ccc(C2CCCCC2)c(Cl)c1)C1CCCCC1 [Cis-N-cyclohexyl-N-ethyl-3-(3-chloro-4-cyclohexylphenyl)prop-2-enylamine],"myelin formation in the demyelinated lesion, electron microscopy (FIG. 7C)",new myelin formation
same,number of toluidine Blue-stained newly myelinated fibers within the spinal cord (FIG. 7F),significantly increased
